Reference: the supplement of paper PMC10307832

Assays:
Assay in all cases: relative viability (nuclei count vs DMSO), 5 days (fraction); higher = more cells survive
SW 900 = test system: SW 900
In short: (§1)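 Lung cancer cell lines in 1536-well plates got either a single drug or a fixed anchor-drug dose together with five library-drug doses (not always all listed) in √10 steps, by pin tool, on the day after seeding. Nuclei were counted after 5 days, and relative viability is the treated-to-vehicle ratio of nuclei counts. Values are medians of duplicate plates.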

NCI-H1975 = test system: NCI-H1975
In short: as §1

SK-LU-1 = test system: SK-LU-1
In short: as §1

EPLC-272H = test system: EPLC-272H
In short: as §1

EMC-BAC-2 = test system: EMC-BAC-2
In short: as §1

EKVX = test system: EKVX
In short: as §1

NCI-H1666 = test system: NCI-H1666
In short: as §1

ChaGo-K-1 = test system: ChaGo-K-1
In short: as §1

NCI-H2405 = test system: NCI-H2405
In short: as §1

NCI-H2342 = test system: NCI-H2342
In short: as §1

HCC-827 = test system: HCC-827
In short: as §1

LU99A = test system: LU99A
In short: as §1

NCI-H23 = test system: NCI-H23
In short: as §1

NCI-H2126 = test system: NCI-H2126
In short: as §1

LK-2 = test system: LK-2
In short: as §1

PC-14 = test system: PC-14
In short: as §1

NCI-H1563 = test system: NCI-H1563
In short: as §1

RERF-LC-KJ = test system: RERF-LC-KJ
In short: as §1

LCLC-103H = test system: LCLC-103H
In short: as §1

NCI-H322M = test system: NCI-H322M
In short: as §1

SW 1573 = test system: SW 1573
In short: as §1

SMILES: Cc1sc2c(c1C)C(c1ccc(Cl)cc1)=N[C@@H](CC(=O)OC(C)(C)C)c1nnc(C)n1-2 [JQ1] + CCNC(=O)c1noc(-c2cc(C(C)C)c(O)cc2O)c1-c1ccc(CN2CCOCC2)cc1 [Luminespib] (partner 0.01 µM)
- relative viability (SW 900; first compound 0.04 µM): 0.153
- relative viability (SW 900; first compound 0.1265 µM): 0.186
- relative viability (SW 900; first compound 0.4 µM): 0.169
- relative viability (SW 900; first compound 1.265 µM): 0.183
- relative viability (SW 900; first compound 4 µM): 0.177
- relative viability (NCI-H1975; first compound 0.04 µM): 0.212
- relative viability (NCI-H1975; first compound 0.1265 µM): 0.137
- relative viability (NCI-H1975; first compound 0.4 µM): 0.162
- relative viability (NCI-H1975; first compound 1.265 µM): 0.206
- relative viability (NCI-H1975; first compound 4 µM): 0.172
- relative viability (SK-LU-1; first compound 0.04 µM): 0.199
- relative viability (SK-LU-1; first compound 0.1265 µM): 0.177
- relative viability (SK-LU-1; first compound 0.4 µM): 0.171
- relative viability (SK-LU-1; first compound 1.265 µM): 0.152
- relative viability (SK-LU-1; first compound 4 µM): 0.175
- relative viability (EPLC-272H; first compound 0.04 µM): 0.451
- relative viability (EPLC-272H; first compound 0.1265 µM): 0.332
- relative viability (EPLC-272H; first compound 0.4 µM): 0.238
- relative viability (EPLC-272H; first compound 1.265 µM): 0.179
- relative viability (EPLC-272H; first compound 4 µM): 0.189
- relative viability (EMC-BAC-2; first compound 0.04 µM): 1.16
- relative viability (EMC-BAC-2; first compound 0.1265 µM): 1.09
- relative viability (EMC-BAC-2; first compound 0.4 µM): 0.925
- relative viability (EMC-BAC-2; first compound 1.265 µM): 0.472
- relative viability (EMC-BAC-2; first compound 4 µM): 0.477
- relative viability (EKVX; first compound 0.04 µM): 0.832
- relative viability (EKVX; first compound 0.1265 µM): 0.877
- relative viability (EKVX; first compound 0.4 µM): 0.895
- relative viability (EKVX; first compound 1.265 µM): 0.824
- relative viability (EKVX; first compound 4 µM): 0.572
- relative viability (NCI-H1666; first compound 0.04 µM): 1.03
- relative viability (NCI-H1666; first compound 0.1265 µM): 0.916
- relative viability (NCI-H1666; first compound 0.4 µM): 0.908
- relative viability (NCI-H1666; first compound 1.265 µM): 0.669
- relative viability (NCI-H1666; first compound 4 µM): 0.64
- relative viability (ChaGo-K-1; first compound 0.04 µM): 0.77
- relative viability (ChaGo-K-1; first compound 0.1265 µM): 0.503
- relative viability (ChaGo-K-1; first compound 0.4 µM): 0.452
- relative viability (ChaGo-K-1; first compound 1.265 µM): 0.322
- relative viability (ChaGo-K-1; first compound 4 µM): 0.285
- relative viability (NCI-H2405; first compound 0.04 µM): 0.795
- relative viability (NCI-H2405; first compound 0.1265 µM): 0.637
- relative viability (NCI-H2405; first compound 0.4 µM): 0.963
- relative viability (NCI-H2405; first compound 1.265 µM): 0.719
- relative viability (NCI-H2405; first compound 4 µM): 0.655
- relative viability (NCI-H2342; first compound 0.04 µM): 0.633
- relative viability (NCI-H2342; first compound 0.1265 µM): 0.569
- relative viability (NCI-H2342; first compound 0.4 µM): 0.8
- relative viability (NCI-H2342; first compound 1.265 µM): 0.739
- relative viability (NCI-H2342; first compound 4 µM): 0.539
- relative viability (HCC-827; first compound 0.04 µM): 0.887
- relative viability (HCC-827; first compound 0.4 µM): 0.424
- relative viability (HCC-827; first compound 1.265 µM): 0.624
- relative viability (HCC-827; first compound 4 µM): 0.59
- relative viability (LU99A; first compound 0.04 µM): 0.285
- relative viability (LU99A; first compound 0.1265 µM): 0.246
- relative viability (LU99A; first compound 0.4 µM): 0.266
- relative viability (LU99A; first compound 1.265 µM): 0.173
- relative viability (LU99A; first compound 4 µM): 0.179
- relative viability (NCI-H23; first compound 0.04 µM): 0.247
- relative viability (NCI-H23; first compound 0.1265 µM): 0.185
- relative viability (NCI-H23; first compound 0.4 µM): 0.179
- relative viability (NCI-H23; first compound 1.265 µM): 0.166
- relative viability (NCI-H23; first compound 4 µM): 0.173
- relative viability (NCI-H2126; first compound 0.04 µM): 0.968
- relative viability (NCI-H2126; first compound 0.1265 µM): 0.767
- relative viability (NCI-H2126; first compound 0.4 µM): 0.977
- relative viability (NCI-H2126; first compound 1.265 µM): 0.864
- relative viability (NCI-H2126; first compound 4 µM): 0.659
- relative viability (LK-2; first compound 0.04 µM): 0.188
- relative viability (LK-2; first compound 0.1265 µM): 0.157
- relative viability (LK-2; first compound 0.4 µM): 0.143
- relative viability (LK-2; first compound 1.265 µM): 0.142
- relative viability (LK-2; first compound 4 µM): 0.136
- relative viability (PC-14; first compound 0.04 µM): 0.146
- relative viability (PC-14; first compound 0.1265 µM): 0.146
- relative viability (PC-14; first compound 0.4 µM): 0.0705
- relative viability (PC-14; first compound 1.265 µM): 0.0929
- relative viability (PC-14; first compound 4 µM): 0.0646
- relative viability (NCI-H1563; first compound 0.04 µM): 0.565
- relative viability (NCI-H1563; first compound 0.1265 µM): 0.478
- relative viability (NCI-H1563; first compound 0.4 µM): 0.449
- relative viability (NCI-H1563; first compound 1.265 µM): 0.447
- relative viability (NCI-H1563; first compound 4 µM): 0.491
- relative viability (RERF-LC-KJ; first compound 0.04 µM): 1.25
- relative viability (RERF-LC-KJ; first compound 0.1265 µM): 1.07
- relative viability (RERF-LC-KJ; first compound 0.4 µM): 1.04
- relative viability (RERF-LC-KJ; first compound 1.265 µM): 0.668
- relative viability (RERF-LC-KJ; first compound 4 µM): 0.414
- relative viability (LCLC-103H; first compound 0.04 µM): 0.973
- relative viability (LCLC-103H; first compound 0.1265 µM): 0.85
- relative viability (LCLC-103H; first compound 0.4 µM): 0.533
- relative viability (LCLC-103H; first compound 1.265 µM): 0.47
- relative viability (LCLC-103H; first compound 4 µM): 0.358
- relative viability (NCI-H322M; first compound 0.04 µM): 0.797
- relative viability (NCI-H322M; first compound 0.1265 µM): 0.879
- relative viability (NCI-H322M; first compound 0.4 µM): 0.599
- relative viability (NCI-H322M; first compound 1.265 µM): 0.383
- relative viability (NCI-H322M; first compound 4 µM): 0.395
- relative viability (SW 1573; first compound 0.04 µM): 0.249
- relative viability (SW 1573; first compound 0.1265 µM): 0.182
- relative viability (SW 1573; first compound 0.4 µM): 0.195
- relative viability (SW 1573; first compound 1.265 µM): 0.0871
- relative viability (SW 1573; first compound 4 µM): 0.0908
